Assay results taken from PMC11013662, “New Thiosemicarbazide Derivatives with Multidirectional Biological Action” (Molecules, 2024).
Values after ≈ are worked out from the molar mass of the structure shown. Like-named read-outs stand apart in the source and are kept apart here.

What was measured:
Rhabditis sp. = test system: Rhabditis sp.; parameters: method as in PMID 35408557; settings: reference drug; cited from earlier work
[1] = test system: Staphylococcus aureus ATCC 43300; experiment: Broth microdilution MIC / MBC; assay type: cell-based; settings: ATCC 43300 / MRSA
Method: (§1) The microdilution method was used to determine the MIC values of newly synthesized compounds. The antimicrobial activity of the thiosemicarbazides series was tested on ten reference bacterial strains purchased from the American Type Culture Collection (ATCC). Seven Gram-positive reference strains (S. aureus ATCC 29213, S. aureus ATCC 43300, S. aureus ATCC 6538, S. aureus ATCC 25923, S. epidermidis ATCC 12228, M. luteus ATCC 10240, and B. cereus ATCC 10876) and three Gram-negative reference bacteria (K. pneumoniae ATCC 13883, E. coli ATCC 25922, S. typhimurium ATCC 14028) were used. These bacterial strains are representatives of microorganisms that can cause the most common opportunistic infections among humans. The bacteria were grown on Mueller–Hinton agar (MHA) plates before examination. To perform the assay, all bacteria were placed in sterile saline (0.85% NaCl) to obtain a suspension of the optical density of the 0.5 McFarland standard (1.50 × 10^8 colony-forming units (CFUs)/mL). A solution of the tested compounds was prepared in dimethyl sulfoxide (DMSO) at a concentration of 50 mg/mL as a stock solution.
(§2) A 96-well microtiter plate and microbroth two-fold dilution method was used to determine the minimum inhibitory concentration (MIC) according to the EUCAST (European Committee on Antimicrobial Susceptibility Testing) reference recommendation. The solutions were then diluted with Mueller–Hinton broth (MHB, Biomaxima, Lublin, Poland) medium to obtain a solution with a basic concentration of 1000 µg/mL. Then, using the two-fold dilution method with MHB, the tested compounds were introduced into the wells of the microplate to provide a final concentration in the range of 0.49 to 1000 µg/mL. Then, 2 μL of bacterial inoculum with a density of 0.5 McFarland standard was added into each well. Each well was filled with a total volume of 100 μL. Then, microtiter plates were incubated for 18 ± 2 h at 35 °C. After incubation, the growth of bacteria was monitored by a Biotek ELx800 (Biokom, Janki, Poland) spectrophotometer at 600 nm (OD600). The MIC assays were performed in triplicate.
(§3) A negative control with MHB and without tested compounds was used. Clinically used anti-bacterial agents, cefuroxime and vancomycin, were included as positive controls for the purpose of comparison in a concentration range from 0.007 to 15.625 µg/mL.
(§4) The in vitro antimicrobial activity of the tested compounds was determined by the MIC, which was defined as the lowest concentration of the compound tested at which no visible growth of the test bacteria was observed. The MBC (the minimum bactericidal concentration) is defined as the lowest concentration of antimicrobial agent resulting in reduction in the viability of the initial bacterial inoculum by ≥99.9% on the plate. Generally, an MBC/MIC ratio less than 4 is considered bactericidal for an antimicrobial, and an MBC/MIC > 8 is indicative of bacteriostatic activity. For the MBC test, the Mueller–Hinton agar (MHA, Biomaxima, Poland) plate assay was used. MBC was determined after the broth dilution period of an MIC test has been completed. After the MIC detection, 5 µL aliquots from each well were plated on an MHA plate and grown at 35 °C overnight. The MBC values were determined by observing the first clear area on the agar plate that has no observable bacterial growth.

[2] = test system: Staphylococcus aureus ATCC 25923; experiment: Broth microdilution MIC / MBC; assay type: cell-based
Method: as §1, §2, §3, §4

[3] = test system: V79 Chinese hamster lung cells; experiment: MTT cytotoxicity assay; assay type: cell-based; settings: Cricetulus griseus, V 79 normal cells, 72 h
Method: Both lines were obtained from American Type Culture Collection (ATCC, Rockville, MD, USA). The culture used to grow the SW 620 cells was prepared in MEM (ThermoSci, Waltham, MA, USA). The V79 cells were cultured in RPMI (Biowest SAS, Nuaillé, France) with the addition of 20 mM HEPES (Biowest, Nuaillé, France), 10% fetal bovine serum (FBS, Sigma-Aldrich, St. Louis, MO, USA), 100 µg/mL of streptomycin, and 100 U/mL of penicillin (Gibco, Grand Island, NY, USA). The eligible level of cells confluence was 80–90%, and both cell cultures were maintained in a humidified incubator set at 37 °C with 5% CO2 until they reached it.
The MTT assay was used to establish the cytotoxic activity of the studied compounds. The mechanism of this method relies on enzymatic conversion of 3-(4,5-dimethylthiazol-2-yl)-2,5-diphentyltetrazolium bromide salt (MTT) into insoluble formazan crystals by mitochondrial dehydrogenases within viable cells.
The process starts with the preparation of 96-well plates by placing cells at a density of 1 × 10^4 per well and incubating them for 24 h to adhere. Afterwards, the cells were treated with different concentrations of thiosemicarbazide derivatives, from 20 to 100 µM, except the control group which remained not exposed. Next, cells were incubated for 72 h at 37 °C with a 5% CO2. Then, a solution of MTT (0.5 mg/mL) was added to each well and plates were incubated for 4 h more in the same conditions.
To dissolve precipitated formazan crystals, a mixture of DMSO and isopropanol (in a 1:1 ratio, v/v) was used. For the spectrophotometric survey, we used MultiscanGo from Thermo Scientific with the wavelength value set at 570 nm to measure absorbance.
Cell viability was determined as the percentage of MTT reduction in the treated cells compared to the control group (unexposed cells). The relative MTT level, represented as a percentage, was calculated using the formula [A]/[B] × 100, where [A] stands for the absorbance of the treated cell sample and [B] for the absorbance of unexposed to studied compounds sample (control group). […] To calculate IC50 values (concentration at which 50% of cell viability is inhibited), we used GraphPad Prism 8.0.1 software.

[4] = test system: SW 620 human metastatic colon cancer cells; experiment: MTT cytotoxicity assay; assay type: cell-based; settings: Homo sapiens; SW 620, MTT, 72 h
Method: Both lines were obtained from American Type Culture Collection (ATCC, Rockville, MD, USA). The culture used to grow the SW 620 cells was prepared in MEM (ThermoSci, Waltham, MA, USA). The V79 cells were cultured in RPMI (Biowest SAS, Nuaillé, France) with the addition of 20 mM HEPES (Biowest, Nuaillé, France), 10% fetal bovine serum (FBS, Sigma-Aldrich, St. Louis, MO, USA), 100 µg/mL of streptomycin, and 100 U/mL of penicillin (Gibco, Grand Island, NY, USA). […] The MTT assay was used to establish the cytotoxic activity of the studied compounds. […] The process starts with the preparation of 96-well plates by placing cells at a density of 1 × 10^4 per well and incubating them for 24 h to adhere. […] Next, cells were incubated for 72 h at 37 °C with a 5% CO2. Then, a solution of MTT (0.5 mg/mL) was added to each well and plates were incubated for 4 h more in the same conditions. To dissolve precipitated formazan crystals, a mixture of DMSO and isopropanol (in a 1:1 ratio, v/v) was used. […] Cell viability was determined as the percentage of MTT reduction in the treated cells compared to the control group (unexposed cells). The relative MTT level, represented as a percentage, was calculated using the formula [A]/[B] × 100, where [A] stands for the absorbance of the treated cell sample and [B] for the absorbance of unexposed to studied compounds sample (control group).

[5] = test system: Staphylococcus epidermidis ATCC 12228; experiment: Broth microdilution MIC / MBC; assay type: cell-based; settings: ATCC12228, S. epidermidis ATCC 12228
Method: as §1, §2, §3, §4

[6] = test system: Staphylococcus aureus ATCC 6538; experiment: Broth microdilution MIC / MBC; assay type: cell-based; settings: ATCC6538, S. aureus ATCC 6538
Method: as §1, §2, §3, §4

[7] = test system: Micrococcus luteus ATCC 10240; experiment: Broth microdilution MIC / MBC; assay type: cell-based; settings: ATCC10240, M. luteus ATCC 10240
Method: as §1, §2, §3, §4

[8] = test system: Bacillus cereus ATCC 10876; experiment: Broth microdilution MIC / MBC; assay type: cell-based; settings: ATCC10876, B. cereus ATCC 10876
Method: as §1, §2, §3, §4

In the case of CCCSc1ccc2nc(NC(=O)OC)[nH]c2c1 [albendazole], the LC50 (Rhabditis sp.) is listed as 19200 µg/mL (≈ 72500 µM).
Molecule CN[C@H](CC(C)C)C(=O)N[C@H]1C(=O)N[C@@H](CC(N)=O)C(=O)N[C@H]2C(=O)N[C@H]3C(=O)N[C@H](C(=O)N[C@H](C(=O)O)c4cc(O)cc(O)c4-c4cc3ccc4O)[C@H](O)c3ccc(c(Cl)c3)Oc3cc2cc(c3O[C@@H]2O[C@H](CO)[C@@H](O)[C@H](O)[C@H]2O[C@H]2C[C@](C)(N)[C@H](O)[C@H](C)O2)Oc2ccc(cc2Cl)[C@H]1O [Van, vancomycin, reference compound] has an MBC [1] of 2 µg/mL (≈ 1.38 µM), an MIC [1] of 2 µg/mL (≈ 1.38 µM) and an MBC ([2]; ATCC25923) of 2 µg/mL (≈ 1.38 µM). It also gave an MIC ([2]; ATCC25923) of 2 µg/mL (≈ 1.38 µM).
For COc1cccc2c1C(=O)c1c(O)c3c(c(O)c1C2=O)C[C@@](O)(C(=O)CO)C[C@@H]3O[C@H]1C[C@H](N)[C@H](O)[C@H](C)O1 [Ref, Doxorubicin, reference compound], the IC50 [3] was 0.46 ± 0.03 µM and the IC50 [4] was 1.83 ± 0.1 µM.
CO/N=C(\C(=O)N[C@@H]1C(=O)N2C(C(=O)O)=C(COC(N)=O)CS[C@H]12)c1ccco1 [Cef, cefuroxime, reference compound] showed an MIC [5] of 0.25 µg/mL (≈ 0.589 µM), an MIC ([2]; ATCC25923, S. aureus ATCC 25923, read-out: MIC) of 0.49 µg/mL (≈ 1.15 µM) and an MIC [6] of 0.98 µg/mL (≈ 2.31 µM). It also gave an MIC [7] of 0.25 µg/mL (≈ 0.589 µM) and an MIC [8] of 31.2 µg/mL (≈ 73.6 µM).
